Literature values in patent US6582919B2, “Method of determining epidermal growth factor receptor and HER2-neu gene expression and correlation of levels thereof with survival rates” (Response Genetics, Inc., priority 2001, dated 2003).

Experiments:
[1] = tested on: EGFR expressing human mammary carcinoma cells; details: cells injected into athymic nude mice (Toi et al. 1990)
[2] = tested on: tumors not expressing EGFR; details: Toi et al. 1990

## O=CN/C=C/c1cc(O)ccc1O [erbstatin]
[1]
  growth of EGFR expressing human mammary carcinoma cells: reduced the growth
[2]
  growth of tumors not expressing EGFR: no effect
